Measured values from US20200087258A1, “INHIBITOR OF CITRATE TRANSPORTER AND THEIR USE IN THERAPY” (Eternygen GmbH, priority 2017, published 2020).

Target: T1, GLUT1 (Homo sapiens, UniProt P11166)
T1 construct: Huh-7 cells which endogenously express GLUT1; endogenous in cells; host or cells: Huh-7
T1 sequence (P11166 1-492): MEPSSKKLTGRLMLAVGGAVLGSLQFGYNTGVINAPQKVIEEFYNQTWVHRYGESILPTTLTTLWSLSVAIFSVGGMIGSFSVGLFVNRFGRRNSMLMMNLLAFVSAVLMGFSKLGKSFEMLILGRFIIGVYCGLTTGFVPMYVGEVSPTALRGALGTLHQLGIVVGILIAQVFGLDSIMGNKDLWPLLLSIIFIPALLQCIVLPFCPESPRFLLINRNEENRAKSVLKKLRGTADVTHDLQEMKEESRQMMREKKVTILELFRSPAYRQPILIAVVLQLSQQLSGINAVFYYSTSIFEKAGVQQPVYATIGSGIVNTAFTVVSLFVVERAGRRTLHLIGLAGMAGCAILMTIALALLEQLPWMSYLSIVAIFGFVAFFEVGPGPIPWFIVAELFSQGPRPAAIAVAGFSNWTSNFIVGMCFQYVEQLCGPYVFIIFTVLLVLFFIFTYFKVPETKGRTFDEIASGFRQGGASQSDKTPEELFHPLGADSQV
Assay: 3H-glucose uptake counter assay in Huh7 cells endogenously expressing GLUT1
Assay type: cell-based
Conditions: endogenous GLUT1
Method: The compound was obtained by screening of a library containing more than 50,000 lead-like compounds and fragments. The library was tested using a functional citrate uptake assay with HEK293 cells overexpressing recombinant human INDY. The following hit confirmation was conducted in the same assay system. To confirm the activity of selected compounds on the target INDY another cell assay was conducted. In this assay system citrate uptake was measured using HepG2 cells which endogenously express INDY. Furthermore selectivity of selected compounds was tested for two other transporters in different assay systems. The first transporter was the glutamate transporter GLT-1 tested in a glutamate uptake assays using HEK293 cells overexpressing recombinant human GLT-1. The second transporter was the glucose transporter GLUT1 tested in a glucose uptake assay using Huh-7 cells which endogenously express GLUT1. Compounds were considered to be selective with an at least 5-fold higher activity for INDY than for the other two transporters.
Cells were maintained in cell medium using cell culture grade flasks (CellSTACK Corning, 500 cm2 dishes or T175 depending on cell number). The selection antibiotic and G418 (800 μg/ml) was added during cultivation but not for seeding into assay plates. For splitting, cells were washed with PBS (w/o Ca2+, Mg2+, phenol red) and detached with Trypsin/EDTA. Throughout cultivation cells were kept sub-confluent. Detached cells (50,000 cells/well) were seeded in 96-well plates (white, clear bottom from Corning #655098) and incubated over night before usage in the assay. The following media were used. For HEK293 cells expressing INDY MEM (PAA)+10% FCS+1×P/S+2 mM L-Gln; for HEK293 cells expressing GLT-1 DMEM (Gibco)+10% FCS+400 µg/ml G418; for Huh7 cells DMEM (Gibco)+10% FCS+2 mM L-Gin (+1×P/S); for HepG2 cells MEM (PAA, Cat # E15-024)+10% FCS+2 mM L-Gin+1×NEAA+1 mM Na-Pyruvat […]
Glucose uptake in Huh7 cells was measured as a counter assay. […] After 20 min incubation at RT plates were measured using TopCount system, Perkin Elmer. […]

IC50: > 50 µM
Structure (SMILES): O=C(NCc1ccccc1F)C1CCN(S(=O)(=O)/C=C/c2ccccc2)CC1 [Example 5]
